Legend:
[1] = biological target: Mitogen-activated protein kinase kinase kinase kinase 5 (Homo sapiens) (UniProt Q9Y4K4); test: Inhibition of recombinant full length human GST-tagged KHS1 expressed in baculovirus expression system at 0.1 uM using serine/threonine-7 peptide as substrate incubated for 60 mins by Z'-LYTE assay relative to control
[2] = biological target: Ribosomal protein S6 kinase alpha-5 (Homo sapiens) (UniProt O75582); test: Inhibition of recombinant full length human GST-tagged MSK1 expressed in baculovirus expression system at 0.1 uM using serine/threonine-1 peptide as substrate incubated for 60 mins by Z'-LYTE assay relative to control
Chain of Ribosomal protein S6 kinase alpha-5 (Homo sapiens) (O75582 whole entry, looked up): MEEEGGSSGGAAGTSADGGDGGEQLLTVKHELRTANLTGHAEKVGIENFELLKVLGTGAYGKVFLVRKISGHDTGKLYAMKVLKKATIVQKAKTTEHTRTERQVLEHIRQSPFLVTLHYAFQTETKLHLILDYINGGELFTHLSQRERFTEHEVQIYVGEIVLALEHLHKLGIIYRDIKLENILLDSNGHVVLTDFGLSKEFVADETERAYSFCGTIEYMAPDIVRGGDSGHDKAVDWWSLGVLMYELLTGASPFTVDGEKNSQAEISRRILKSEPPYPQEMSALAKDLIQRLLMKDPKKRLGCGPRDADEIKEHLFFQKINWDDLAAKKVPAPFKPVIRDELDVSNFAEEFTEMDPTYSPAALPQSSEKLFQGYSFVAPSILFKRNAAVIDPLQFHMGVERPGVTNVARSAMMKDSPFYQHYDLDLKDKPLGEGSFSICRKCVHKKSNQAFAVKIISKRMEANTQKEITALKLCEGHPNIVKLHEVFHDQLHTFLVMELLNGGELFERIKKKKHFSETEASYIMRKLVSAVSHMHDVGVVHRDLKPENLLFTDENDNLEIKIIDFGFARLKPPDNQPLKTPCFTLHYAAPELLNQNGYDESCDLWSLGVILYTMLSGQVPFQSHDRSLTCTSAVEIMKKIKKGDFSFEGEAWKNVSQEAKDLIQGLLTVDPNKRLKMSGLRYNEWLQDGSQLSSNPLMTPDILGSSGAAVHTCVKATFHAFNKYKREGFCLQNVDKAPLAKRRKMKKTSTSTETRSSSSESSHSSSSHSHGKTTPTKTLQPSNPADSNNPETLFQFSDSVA

[3] = biological target: Serine/threonine-protein kinase Nek4 (Homo sapiens) (UniProt P51957); test: Inhibition of recombinant full length human GST-tagged NEK4 expressed in baculovirus expression system at 0.1 uM using serine/threonine-17 peptide as substrate incubated for 60 mins by Z'-LYTE assay relative to control
[4] = biological target: Tyrosine-protein kinase FRK (Homo sapiens) (UniProt P42685); test: Inhibition of recombinant full length human GST-tagged FRK expressed in baculovirus expression system at 0.1 uM using tyrosine-1 peptide as substrate incubated for 60 mins by Z'-LYTE assay relative to control
Chain of Tyrosine-protein kinase FRK (Homo sapiens) (P42685 whole entry): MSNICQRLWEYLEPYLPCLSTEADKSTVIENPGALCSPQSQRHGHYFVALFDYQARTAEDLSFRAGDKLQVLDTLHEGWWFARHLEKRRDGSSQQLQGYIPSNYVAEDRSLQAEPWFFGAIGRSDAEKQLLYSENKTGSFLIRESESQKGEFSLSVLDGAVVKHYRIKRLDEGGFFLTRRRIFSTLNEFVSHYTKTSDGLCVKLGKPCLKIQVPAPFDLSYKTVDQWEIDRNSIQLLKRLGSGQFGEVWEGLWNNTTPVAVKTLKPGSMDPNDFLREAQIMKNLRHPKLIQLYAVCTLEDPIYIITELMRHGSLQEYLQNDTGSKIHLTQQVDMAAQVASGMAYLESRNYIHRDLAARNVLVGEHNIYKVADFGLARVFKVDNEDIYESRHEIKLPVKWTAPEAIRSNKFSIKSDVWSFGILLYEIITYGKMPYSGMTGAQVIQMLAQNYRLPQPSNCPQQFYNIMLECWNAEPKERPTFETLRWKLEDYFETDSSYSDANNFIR

[5] = biological target: Homeodomain-interacting protein kinase 4 (Homo sapiens) (UniProt Q8NE63); test: Inhibition of recombinant full length human GST-tagged HIPK4 expressed in baculovirus expression system at 0.1 uM using serine/threonine-18 peptide as substrate incubated for 60 mins by Z'-LYTE assay relative to control
[6] = biological target: cAMP-dependent protein kinase catalytic subunit PRKX (Homo sapiens) (UniProt P51817); test: Inhibition of recombinant full length human GST-tagged PRKX expressed in baculovirus expression system at 0.1 uM using serine/threonine-1 peptide as substrate incubated for 60 mins by Z'-LYTE assay relative to control
Chain of cAMP-dependent protein kinase catalytic subunit PRKX (Homo sapiens) (P51817 whole entry): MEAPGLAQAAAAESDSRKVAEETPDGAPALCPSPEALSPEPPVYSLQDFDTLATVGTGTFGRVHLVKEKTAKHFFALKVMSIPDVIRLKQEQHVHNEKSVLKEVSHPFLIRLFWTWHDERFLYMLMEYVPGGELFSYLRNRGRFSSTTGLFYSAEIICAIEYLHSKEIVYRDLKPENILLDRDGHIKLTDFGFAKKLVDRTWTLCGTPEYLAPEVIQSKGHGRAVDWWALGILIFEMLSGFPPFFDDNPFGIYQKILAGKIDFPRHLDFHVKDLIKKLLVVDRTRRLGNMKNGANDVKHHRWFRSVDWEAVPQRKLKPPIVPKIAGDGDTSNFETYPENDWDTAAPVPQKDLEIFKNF

[7] = biological target: Serine/threonine-protein kinase PLK1 (Homo sapiens) (UniProt P53350); test: Inhibition of recombinant full length human His-tagged PLK1 expressed in baculovirus expression system at 0.1 uM using serine/threonine-16 peptide as substrate incubated for 60 mins by Z'-LYTE assay relative to control
[8] = biological target: Protein kinase C zeta type (Homo sapiens) (UniProt Q05513); test: Inhibition of recombinant full length human PKCzeta expressed in baculovirus expression system at 0.1 uM using serine/threonine-7 peptide as substrate incubated for 60 mins by Z'-LYTE assay relative to control
[9] = biological target: BDNF/NT-3 growth factors receptor (Homo sapiens) (UniProt Q16620); test: Inhibition of recombinant human His-tagged TRKB catalytic domain (526 to 838 residues) expressed in baculovirus expression system at 0.1 uM using tyrosine-1 peptide as substrate incubated for 60 mins by Z'-LYTE assay relative to control
Chain of BDNF/NT-3 growth factors receptor (Homo sapiens) (Q16620 32-822 limits assumed): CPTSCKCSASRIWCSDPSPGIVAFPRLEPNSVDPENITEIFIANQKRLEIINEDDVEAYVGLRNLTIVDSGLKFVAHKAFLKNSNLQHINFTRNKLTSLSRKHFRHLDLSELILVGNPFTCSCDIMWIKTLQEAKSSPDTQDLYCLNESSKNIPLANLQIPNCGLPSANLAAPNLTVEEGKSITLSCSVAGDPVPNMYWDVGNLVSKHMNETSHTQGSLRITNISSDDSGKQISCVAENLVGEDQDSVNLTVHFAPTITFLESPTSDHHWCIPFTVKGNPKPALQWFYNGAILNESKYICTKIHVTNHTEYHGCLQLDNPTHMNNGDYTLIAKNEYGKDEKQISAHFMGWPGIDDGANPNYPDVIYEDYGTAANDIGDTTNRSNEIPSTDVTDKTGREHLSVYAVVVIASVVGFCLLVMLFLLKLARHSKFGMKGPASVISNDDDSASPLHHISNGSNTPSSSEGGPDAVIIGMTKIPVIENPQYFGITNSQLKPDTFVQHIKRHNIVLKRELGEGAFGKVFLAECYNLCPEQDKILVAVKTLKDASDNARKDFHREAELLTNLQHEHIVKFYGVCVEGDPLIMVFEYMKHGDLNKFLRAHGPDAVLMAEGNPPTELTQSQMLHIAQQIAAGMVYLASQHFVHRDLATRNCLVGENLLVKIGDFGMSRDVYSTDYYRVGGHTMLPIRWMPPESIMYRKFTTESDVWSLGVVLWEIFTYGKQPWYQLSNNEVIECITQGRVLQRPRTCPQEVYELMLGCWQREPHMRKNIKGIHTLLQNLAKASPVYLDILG

[10] = biological target: Serine/threonine-protein kinase Sgk2 (Homo sapiens) (UniProt Q9HBY8); test: Inhibition of recombinant human GST-tagged SGK2 catalytic domain (54 to 427 residues) expressed in baculovirus expression system at 0.1 uM using serine/threonine-6 peptide as substrate incubated for 60 mins by Z'-LYTE assay relative to control
[11] = biological target: Calcium/calmodulin-dependent protein kinase kinase 1 (Homo sapiens) (UniProt Q8N5S9); test: Inhibition of tracer 236 binding to recombinant human GST-tagged CAMKK1 expressed in Escherichia coli expression system at 0.1 uM measured after 60 mins by Lanthascreen assay relative to control
[12] = biological target: Mitogen-activated protein kinase 11 (Homo sapiens) (UniProt Q15759); test: Inhibition of recombinant full length human His-tagged p38beta expressed in baculovirus expression system at 0.1 uM using serine/threonine-15 peptide as substrate incubated for 60 mins by Z'-LYTE assay relative to control
[13] = biological target: Tyrosine-protein kinase receptor UFO (Homo sapiens) (UniProt P30530); test: Inhibition of recombinant full length human GST-tagged AXL expressed in insect expression system at 0.1 uM using tyrosine-6 peptide as substrate incubated for 60 mins by Z'-LYTE assay relative to control
[14] = biological target: MAP kinase-activated protein kinase 2 (Homo sapiens) (UniProt P49137); test: Inhibition of recombinant full length human His-tagged MAPKAPK2 expressed in Escherichia coli expression system at 0.1 uM using serine/threonine-4 peptide as substrate incubated for 60 mins by Z'-LYTE assay relative to control
Chain of MAP kinase-activated protein kinase 2 (Homo sapiens) (P49137 whole entry, looked up): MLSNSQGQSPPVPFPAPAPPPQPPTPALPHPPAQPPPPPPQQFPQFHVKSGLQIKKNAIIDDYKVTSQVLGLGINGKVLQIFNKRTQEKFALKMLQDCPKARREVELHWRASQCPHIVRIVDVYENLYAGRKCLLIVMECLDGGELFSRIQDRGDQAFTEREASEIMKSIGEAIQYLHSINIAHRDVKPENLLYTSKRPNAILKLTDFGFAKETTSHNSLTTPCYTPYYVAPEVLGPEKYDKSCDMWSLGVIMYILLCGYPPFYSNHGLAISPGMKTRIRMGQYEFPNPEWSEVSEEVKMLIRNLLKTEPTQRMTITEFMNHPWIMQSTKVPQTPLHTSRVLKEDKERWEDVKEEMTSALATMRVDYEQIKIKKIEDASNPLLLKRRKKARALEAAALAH

[15] = biological target: Serine/threonine-protein kinase Nek6 (Homo sapiens) (UniProt Q9HC98); test: Inhibition of recombinant full length human GST-tagged NEK6 expressed in insect expression system at 0.1 uM using serine/threonine-22 peptide as substrate incubated for 60 mins by Z'-LYTE assay relative to control
Chain of Serine/threonine-protein kinase Nek6 (Homo sapiens) (Q9HC98 whole entry): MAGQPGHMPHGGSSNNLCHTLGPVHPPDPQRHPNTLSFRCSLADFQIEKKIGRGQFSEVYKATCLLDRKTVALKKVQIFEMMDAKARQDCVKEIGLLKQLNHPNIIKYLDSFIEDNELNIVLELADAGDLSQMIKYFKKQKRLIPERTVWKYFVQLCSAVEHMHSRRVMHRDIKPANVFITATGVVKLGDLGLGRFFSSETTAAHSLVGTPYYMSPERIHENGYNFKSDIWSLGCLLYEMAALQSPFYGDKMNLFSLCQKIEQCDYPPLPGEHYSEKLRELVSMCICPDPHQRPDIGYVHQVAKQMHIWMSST

[16] = biological target: CDK7/Cyclin H/MNAT1 (Homo sapiens) (UniProt P51946+P50613+P51948); test: Inhibition of recombinant full length human His-tagged CDK7/CyclinH/MAT1 expressed in baculovirus expression system at 0.1 uM using CDK7/9tide peptide as substrate incubated for 60 mins by Adapta assay relative to control
[17] = biological target: Serine/threonine-protein kinase TAO2 (Homo sapiens) (UniProt Q9UL54); test: Inhibition of recombinant human GST-tagged TAO2 catalytic domain (1 to 314 residues) expressed in baculovirus expression system at 0.1 uM using serine/threonine-7 peptide as substrate incubated for 60 mins by Z'-LYTE assay relative to control
[18] = biological target: Wee1-like protein kinase (Homo sapiens) (UniProt P30291); test: Inhibition of tracer 178 binding to recombinant full length human GST-tagged WEE1 expressed in baculovirus expression system at 0.1 uM measured after 60 mins by Lanthascreen assay relative to control
[19] = biological target: Serine/threonine-protein kinase 25 (Homo sapiens) (UniProt O00506); test: Inhibition of recombinant full length human GST-tagged YSK1 expressed in baculovirus expression system at 0.1 uM using serine/threonine-7 peptide as substrate incubated for 60 mins by Z'-LYTE assay relative to control
[20] = biological target: Rho-associated protein kinase 1 (Homo sapiens) (UniProt Q13464); test: Inhibition of recombinant human GST-tagged ROCK1 catalytic domain (1 to 535 amino acids) expressed in baculovirus expression system at 0.1 uM using serine/threonine-7 peptide as substrate incubated for 60 mins by Z'-LYTE assay relative to control
Chain of Rho-associated protein kinase 1 (Homo sapiens) (Q13464 2-1354 limits assumed): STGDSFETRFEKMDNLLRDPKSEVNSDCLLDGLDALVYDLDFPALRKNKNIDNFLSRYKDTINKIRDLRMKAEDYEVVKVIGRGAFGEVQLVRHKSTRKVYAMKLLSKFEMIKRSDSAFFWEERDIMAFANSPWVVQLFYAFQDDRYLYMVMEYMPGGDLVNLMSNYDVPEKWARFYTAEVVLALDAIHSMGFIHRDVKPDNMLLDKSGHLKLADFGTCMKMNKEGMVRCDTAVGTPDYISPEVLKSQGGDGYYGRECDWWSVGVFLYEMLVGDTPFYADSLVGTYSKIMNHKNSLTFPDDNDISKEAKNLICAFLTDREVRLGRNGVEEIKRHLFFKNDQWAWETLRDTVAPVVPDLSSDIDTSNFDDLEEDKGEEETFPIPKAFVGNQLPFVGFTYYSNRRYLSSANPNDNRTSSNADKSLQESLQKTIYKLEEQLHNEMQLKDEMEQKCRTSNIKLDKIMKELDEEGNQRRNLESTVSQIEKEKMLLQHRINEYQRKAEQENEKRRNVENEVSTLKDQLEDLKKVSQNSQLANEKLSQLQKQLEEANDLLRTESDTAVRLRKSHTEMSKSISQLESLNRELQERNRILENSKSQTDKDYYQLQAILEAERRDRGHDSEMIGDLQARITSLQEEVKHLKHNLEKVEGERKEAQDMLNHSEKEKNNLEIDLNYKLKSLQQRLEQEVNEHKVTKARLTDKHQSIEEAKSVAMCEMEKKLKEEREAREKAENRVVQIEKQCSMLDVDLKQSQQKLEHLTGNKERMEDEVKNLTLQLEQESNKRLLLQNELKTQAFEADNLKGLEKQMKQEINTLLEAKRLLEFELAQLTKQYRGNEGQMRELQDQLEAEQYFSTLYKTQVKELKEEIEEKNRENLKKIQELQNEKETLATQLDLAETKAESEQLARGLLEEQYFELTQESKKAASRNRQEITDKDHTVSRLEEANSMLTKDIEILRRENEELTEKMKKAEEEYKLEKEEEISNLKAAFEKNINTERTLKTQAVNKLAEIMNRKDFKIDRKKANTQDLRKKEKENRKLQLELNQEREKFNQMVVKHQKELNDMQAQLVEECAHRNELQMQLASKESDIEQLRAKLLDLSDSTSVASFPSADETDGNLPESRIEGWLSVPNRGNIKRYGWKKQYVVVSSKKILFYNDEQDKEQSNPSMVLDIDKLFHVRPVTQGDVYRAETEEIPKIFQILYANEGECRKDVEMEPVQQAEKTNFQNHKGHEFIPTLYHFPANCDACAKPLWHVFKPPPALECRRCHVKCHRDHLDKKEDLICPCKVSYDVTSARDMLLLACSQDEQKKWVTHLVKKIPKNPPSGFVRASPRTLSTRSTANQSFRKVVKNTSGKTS

[21] = biological target: Cyclin-dependent kinase 5/CDK5 activator 1 (Homo sapiens) (UniProt Q00535+Q15078); test: Inhibition of recombinant full length human GST/His-tagged CDK5/p25 expressed in baculovirus expression system at 0.1 uM using serine/threonine-12 peptide as substrate incubated for 60 mins by Z'-LYTE assay relative to control
Chain of Cyclin-dependent kinase 5/CDK5 activator 1 (Homo sapiens) (Q00535 whole entry): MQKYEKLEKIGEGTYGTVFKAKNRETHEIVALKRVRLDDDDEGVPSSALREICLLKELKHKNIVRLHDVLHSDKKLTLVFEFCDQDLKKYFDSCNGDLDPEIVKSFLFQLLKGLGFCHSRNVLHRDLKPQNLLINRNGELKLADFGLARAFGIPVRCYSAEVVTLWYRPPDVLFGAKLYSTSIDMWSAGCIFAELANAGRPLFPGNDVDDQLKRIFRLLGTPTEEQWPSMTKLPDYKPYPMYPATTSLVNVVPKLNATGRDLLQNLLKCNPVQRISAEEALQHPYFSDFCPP
Chain of Cyclin-dependent kinase 5/CDK5 activator 1 (Homo sapiens) (Q15078 99-307 partner limits assumed): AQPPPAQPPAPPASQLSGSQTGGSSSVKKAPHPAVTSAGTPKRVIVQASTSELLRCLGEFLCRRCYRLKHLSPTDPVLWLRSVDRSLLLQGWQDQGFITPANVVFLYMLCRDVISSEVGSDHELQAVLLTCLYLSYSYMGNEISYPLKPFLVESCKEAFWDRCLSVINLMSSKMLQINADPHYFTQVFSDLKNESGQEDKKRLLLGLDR

[22] = biological target: Serine/threonine-protein kinase PAK 6 (Homo sapiens) (UniProt Q9NQU5); test: Inhibition of recombinant full length human His-tagged PAK6 expressed in baculovirus expression system at 0.1 uM using serine/threonine-20 peptide as substrate incubated for 60 mins by Z'-LYTE assay relative to control
[23] = biological target: Serine/threonine-protein kinase 4 (Homo sapiens) (UniProt Q13043); test: Inhibition of recombinant full length human GST-tagged MST1 expressed in baculovirus expression system at 0.1 uM using serine/threonine-7 peptide as substrate incubated for 60 mins by Z'-LYTE assay relative to control

| SMILES | inhibition [1] [%] | inhibition [2] [%] | inhibition [3] [%] | inhibition [4] [%] | inhibition [5] [%] | inhibition [6] [%] | inhibition [7] [%] | inhibition [8] [%] | inhibition [9] [%] | inhibition [10] [%] | inhibition [11] [%] | inhibition [12] [%] | inhibition [13] [%] | inhibition [14] [%] | inhibition [15] [%] | inhibition [16] [%] | inhibition [17] [%] | inhibition [18] [%] | inhibition [19] [%] | inhibition [20] [%] | other results |
| --- | --- | --- | --- | --- | --- | --- | --- | --- | --- | --- | --- | --- | --- | --- | --- | --- | --- | --- | --- | --- | --- |
| CCN1CC2(C1)CN(c1ccc(Nc3ncc(F)c(-c4cnn5c4[C@H](C)CCCC5)n3)nc1)C2 | 22 | 24.5 | 3.5 | 1.5 | 8 | 5.5 | 2 | -3 | 6.5 | 27.5 | 12 | 6 | 11.5 | 4.5 | 3.5 | 10.5 | 12.5 | 11 | 10.5 | 2 | inhibition [21]: 72%; inhibition [22]: 3%; inhibition [23]: 8% |
| CCN1CCN(Cc2ccc(Nc3ncc(F)c(-c4cc(F)c5nc(C)n(C(C)C)c5c4)n3)nc2)CC1 [ABEMACICLIB] | 27.3 | 32.5 | 42.5 | 5.5 | 30 | 5 | 8.5 | 12 | 14 | 36.5 | 12.6 | 8 | 15 | 14.5 | 3.5 | 19.1 | 56 | 5.5 | 15 | 18.5 | inhibition [21]: 60.8%; inhibition [22]: 1%; inhibition [23]: 1.5% |
